Assay results from publication PMC12269599, “Analysis of chondroitin degradation by components of a Bacteroides caccae polysaccharide utilization locus” (The Journal of Biological Chemistry, 2025).

Columns and labels:
[1] = target: T1, BcGH88 (Bacteroides caccae, UniProt A0A413IVG2); experiment: loss of absorbance at […] nm; format: biochemical; conditions: only kcat/Km determined; 100 mM Tris pH 7.4, 37 °C
T1 construct: residues 31-433, N-terminal His6 tag with thrombin site, E. coli
T1 sequence (A0A413IVG2 31-433): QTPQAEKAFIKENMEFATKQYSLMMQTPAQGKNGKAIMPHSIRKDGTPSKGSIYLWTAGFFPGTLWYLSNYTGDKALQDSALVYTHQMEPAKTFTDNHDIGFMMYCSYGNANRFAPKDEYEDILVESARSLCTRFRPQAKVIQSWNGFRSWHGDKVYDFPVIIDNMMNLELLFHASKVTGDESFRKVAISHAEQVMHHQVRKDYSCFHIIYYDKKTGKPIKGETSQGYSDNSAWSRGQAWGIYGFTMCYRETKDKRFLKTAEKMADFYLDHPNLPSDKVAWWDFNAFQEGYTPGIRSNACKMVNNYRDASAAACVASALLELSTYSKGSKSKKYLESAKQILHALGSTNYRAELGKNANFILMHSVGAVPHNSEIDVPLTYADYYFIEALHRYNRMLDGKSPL

[2] = target: T2, BcGDH (GH154, BcGH154) (Bacteroides caccae, UniProt I9ECR6); experiment: absorbance at […] nm; LC-ESI-MS of product; format: biochemical; conditions: dehydration to 4,5-unsaturated product; only kcat/Km determined; 100 mM Tris pH 7.4, 25 °C
T2 construct: gene HMPREF1061_03832; residues 24-423, N-terminal His6-thrombin tag (cleaved for crystallography), E. coli, homotetramer; site completed by Y401 of a neighbouring monomer
T2 sequence (I9ECR6 24-423): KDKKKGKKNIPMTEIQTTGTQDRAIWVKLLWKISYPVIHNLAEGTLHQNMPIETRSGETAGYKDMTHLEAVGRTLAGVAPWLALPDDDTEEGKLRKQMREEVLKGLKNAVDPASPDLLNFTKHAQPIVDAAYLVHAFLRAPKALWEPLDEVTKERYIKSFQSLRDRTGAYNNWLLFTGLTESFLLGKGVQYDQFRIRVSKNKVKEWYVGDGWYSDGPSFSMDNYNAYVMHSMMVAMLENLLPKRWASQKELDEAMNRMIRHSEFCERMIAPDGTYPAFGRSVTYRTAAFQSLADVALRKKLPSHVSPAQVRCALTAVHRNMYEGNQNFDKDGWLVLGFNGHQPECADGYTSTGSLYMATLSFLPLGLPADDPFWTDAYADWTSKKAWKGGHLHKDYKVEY

[3] = target: BcGDH (β-D-glucuronate dehydratase from Bacteroides caccae PUL25, previously classified as GH154) (Bacteroides caccae (strain ATCC 43185)); experiment: crystal structure; unliganded BcGDH, spacegroup P2_(1), tetramer in the asymmetric unit; crystals at 18 °C from 26 g/L protein, 220 mM KCl, 24% PEG 3350; the same tetramer seen in four further unrefined crystal forms
[4] = target: BcGDH R285A mutant (Bacteroides caccae (strain ATCC 43185)); experiment: crystal structure; BcGDH R285A soaked in 50 mM chondrosine, spacegroup P2_(1)2_(1)2_(1), tetramer in the asymmetric unit; 18 g/L protein, 0.25 M sodium iodide, 5 to 13% glycerol, 8 to 13% PEG 3350

CC(=O)N[C@H]1C(O)O[C@H](CO)[C@H](O)[C@@H]1O[C@@H]1OC(C(=O)O)=C[C@H](O)[C@H]1O (some centres unmarked) [CSΔ0S]
loss of absorbance at 232 nm [1]: BcGH88 had activity on CSΔ0S and CSΔ6S with kcat/Km values

CC(=O)N[C@H]1C(O)O[C@H](COS(=O)(=O)O)[C@H](O)[C@@H]1O[C@@H]1OC(C(=O)O)=C[C@H](O)[C@H]1O (some centres unmarked) [CSΔ6S]
loss of absorbance at 232 nm [1]: BcGH88 had activity on CSΔ0S and CSΔ6S with kcat/Km values

N[C@H]1C(O)O[C@H](CO)[C@H](O)[C@@H]1O[C@@H]1O[C@H](C(=O)O)[C@@H](O)[C@H](O)[C@H]1O (some centres unmarked) [chondrosine]
absorbance at 232 nm; LC-ESI-MS of product [2]: The absorbance increased in a time-dependent manner, with the rate of increase dependent upon the chondrosine

BcGDH (β-D-glucuronate dehydratase from Bacteroides caccae PUL25, previously classified as GH154) (enzyme)
stoichiometry N [3]: 4

BcGDH R285A mutant (enzyme)
stoichiometry N [4]: 4
